Numbered stars: 1 amine (or outer) side, 2 acyl side, 3 side chain; on linkers, the order of the positions; unused ones are H or OH. Bridge positions count the residues as written; N and C are the ends. Square brackets hold non-standard residues; d marks the D form. Peptide text beside a SMILES is read from it. Tyr(Me) = Yme = 4-methoxy-L-phenylalanine (O-methyl-tyrosine), COc1ccc(C[C@H](N[*:1])C(=O)[*:2])cc1; Trp(1-Me) = Cn1cc(C[C@H](N)C(=O)O)c2ccccc21; 1Nal = N[C@@H](Cc1cccc2ccccc12)C(=O)O; 2Nal = N[C@@H](Cc1ccc2ccccc2c1)C(=O)O; dOrn = NCCC[C@@H](N)C(=O)O; Orn = NCCC[C@H](N)C(=O)O; Thp = NC1(C(=O)O)CCOCC1; Aib = CC(C)(N)C(=O)O; Ahx = NCCCCCC(=O)O; Ava = NCCCCC(=O)O
T1: human IL-23R (Homo sapiens, UniProt Q5VWK5)
T1 sequence (Q5VWK5 24-355 limits assumed): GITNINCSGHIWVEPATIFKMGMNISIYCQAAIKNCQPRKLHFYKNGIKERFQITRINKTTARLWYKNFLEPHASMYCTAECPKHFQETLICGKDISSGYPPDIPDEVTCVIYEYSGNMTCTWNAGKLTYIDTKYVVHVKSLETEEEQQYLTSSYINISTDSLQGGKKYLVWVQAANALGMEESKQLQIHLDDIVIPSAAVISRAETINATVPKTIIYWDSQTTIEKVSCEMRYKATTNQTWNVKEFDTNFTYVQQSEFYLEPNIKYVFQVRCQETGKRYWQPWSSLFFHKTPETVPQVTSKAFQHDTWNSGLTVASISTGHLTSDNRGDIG

T2: IL-23 receptor on the surface of HEK-Blue IL-23 cells (UniProt Q5VWK5 24-629, limits assumed)
T2 sequence (looked up): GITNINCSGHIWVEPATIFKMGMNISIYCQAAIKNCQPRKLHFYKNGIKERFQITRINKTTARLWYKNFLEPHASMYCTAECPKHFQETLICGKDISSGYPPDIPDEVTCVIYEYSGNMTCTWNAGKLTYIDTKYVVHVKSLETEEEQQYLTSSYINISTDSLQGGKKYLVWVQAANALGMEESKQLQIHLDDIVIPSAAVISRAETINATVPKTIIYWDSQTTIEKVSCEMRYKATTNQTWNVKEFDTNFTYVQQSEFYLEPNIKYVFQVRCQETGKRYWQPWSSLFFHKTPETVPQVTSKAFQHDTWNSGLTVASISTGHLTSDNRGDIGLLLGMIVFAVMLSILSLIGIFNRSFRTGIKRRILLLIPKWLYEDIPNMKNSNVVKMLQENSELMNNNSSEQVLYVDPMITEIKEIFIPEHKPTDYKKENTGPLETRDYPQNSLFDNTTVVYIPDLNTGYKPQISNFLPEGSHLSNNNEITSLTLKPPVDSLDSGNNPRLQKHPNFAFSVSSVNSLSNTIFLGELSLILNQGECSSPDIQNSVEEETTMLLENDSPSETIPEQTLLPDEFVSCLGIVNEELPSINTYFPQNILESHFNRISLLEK


What was measured:
[1] = biological target: T1, human IL-23R; experiment: Human ELISA IL-23/IL-23R binding inhibition; settings: human IL-23 coated, recombinant human IL-23R-Fc chimera
Method: Antagonism of peptide compounds for human interleukin-23 receptor inhibitors, was determined by an ELISA assay.
A 384-well plate was coated with 50 μl/well of human IL-23 at a final concentration of 1 μg/ml and incubated overnight at 4° C. The wells were washed 3 times with 80 μl wash buffer and blocked with 80 μl blocking buffer for 60 minutes at room temperature and washed again. 20 μl of serially diluted test peptides was added to each well and subsequently 20 μl of recombinant human IL-23R-Fc chimera at final concentration of 0.1 μg/ml. The plate was incubated for 60 minutes at room temperature. After the wells were washed, bound IL-23R-Fc was detected with goat anti-hu-lgG1-HRP antibody. Signals were visualized with QuantaBlu Fluorogenic Peroxidase Substrate.

[2] = biological target: T2, IL-23 receptor on the surface of …; experiment: cell-based or functional assay

Row | IC50 [1] [nM] | Inhibition of IL-23 induced pSTAT3 (IC50 nM) [2] [nM] | Molecule
1 | 2.16 |  | COc1ccc(C[C@@H]2NC(=O)[C@H](CCCNC(=N)N)NC(=O)[C@H](CCC(N)=O)NC(=O)[C@H](Cc3cn(C)c4ccccc34)NC(=O)[C@H]([C@@H](C)O)NC(=O)[C@H](CC(N)=O)NC(=O)[C@@H](NC(C)=O)CC(=O)NCCC[C@@H](C(=O)N[C@@H](CC(N)=O)C(=O)N[C@@H](CC(N)=O)C(N)=O)NC(=O)C(C)(C)NC(=O)[C@H](Cc3ccc4ccccc4c3)NC2=O)cc1 [compound 34] (Ac-DNT[Trp(1-Me)]QRY(Me)[2Nal][Aib][Orn]NN-NH2; lactam 1-10)
2 | 2.06 |  | COc1ccc(C[C@@H]2NC(=O)[C@H](C)NC(=O)[C@H](CCC(N)=O)NC(=O)[C@H](Cc3c[nH]c4ccccc34)NC(=O)[C@H]([C@@H](C)O)NC(=O)[C@H](CC(N)=O)NC(=O)[C@H](NC(C)=O)CCCCNC(=O)C[C@@H](C(=O)N[C@@H](CC(N)=O)C(=O)N[C@@H](C)C(N)=O)NC(=O)C(C)(C)NC(=O)[C@H](Cc3ccc4ccccc4c3)NC2=O)cc1 [compound 48] (Ac-[dK]NTWQAY(Me)[2Nal][Aib]DNA-NH2; lactam 1-10)
3 | 4.55 |  | COc1ccc(C[C@@H]2NC(=O)[C@H](CCCNC(=N)N)NC(=O)[C@H](CCC(N)=O)NC(=O)[C@H](Cc3cn(C)c4ccccc34)NC(=O)[C@H]([C@@H](C)O)NC(=O)[C@H](CC(N)=O)NC(=O)[C@@H](NC(C)=O)CCC(=O)NCCC[C@@H](C(=O)N[C@@H](CC(N)=O)C(=O)N[C@@H](CC(N)=O)C(N)=O)NC(=O)C(C)(C)NC(=O)[C@H](Cc3ccc4ccccc4c3)NC2=O)cc1 [compound 35] (Ac-ENT[Trp(1-Me)]QRY(Me)[2Nal][Aib][Orn]NN-NH2; lactam 1-10)
4 | 0.96 |  | COc1ccc(C[C@@H]2NC(=O)[C@H](C)NC(=O)[C@H](CCC(N)=O)NC(=O)[C@H](Cc3c[nH]c4ccccc34)NC(=O)[C@H]([C@@H](C)O)NC(=O)[C@H](CCCNC(=N)N)NC(=O)[C@H](NC(C)=O)CCCCNC(=O)C[C@@H](C(=O)N[C@@H](CC(N)=O)C(=O)N[C@@H](CC(N)=O)C(N)=O)NC(=O)C(C)(C)NC(=O)[C@H](Cc3ccc4ccccc4c3)NC2=O)cc1 [compound 45] (Ac-[dK]RTWQAY(Me)[2Nal][Aib]DNN-NH2; lactam 1-10)
5 | 1.38 |  | COc1ccc(C[C@@H]2NC(=O)[C@H](C)NC(=O)[C@H](CCC(N)=O)NC(=O)[C@H](Cc3c[nH]c4ccccc34)NC(=O)[C@H](CCCNC(=N)N)NC(=O)[C@H](CC(N)=O)NC(=O)[C@H](NC(C)=O)CCCCNC(=O)C[C@@H](C(=O)N[C@@H](CC(N)=O)C(=O)N[C@@H](CC(N)=O)C(N)=O)NC(=O)C(C)(C)NC(=O)[C@H](Cc3ccc4ccccc4c3)NC2=O)cc1 [compound 46] (Ac-[dK]NRWQAY(Me)[2Nal][Aib]DNN-NH2; lactam 1-10)
6 |  | 334 | Ac-[dK]NTWQL[Tyr(Me)][2Nal][Aib]DNN-NH2 (lactam 1-10; SMILES COc1ccc(C[C@@H]2NC(=O)[C@H](CC(C)C)NC(=O)[C@H](CCC(N)=O)NC(=O)[C@H](Cc3c[nH]c4ccccc34)NC(=O)[C@H]([C@@H](C)O)NC(=O)[C@H](CC(N)=O)NC(=O)[C@H](NC(C)=O)CCCCNC(=O)C[C@@H](C(=O)N[C@@H](CC(N)=O)C(=O)N[C@@H](CC(N)=O)C(N)=O)NC(=O)C(C)(C)NC(=O)[C@H](Cc3ccc4ccccc4c3)NC2=O)cc1) [peptide compound SEQ ID NO: 1]

Second part, the molecule before the results:

Row | Molecule | IC50 [1] [nM] | Inhibition of IL-23 induced pSTAT3 (IC50 nM) [2] [nM]
7 | COc1ccc(C[C@@H]2NC(=O)[C@H](C)NC(=O)[C@H](CCC(N)=O)NC(=O)[C@H](Cc3c[nH]c4ccccc34)NC(=O)[C@H]([C@@H](C)O)NC(=O)[C@H](CC(N)=O)NC(=O)[C@H](NC(C)=O)CCCCNC(=O)C[C@@H](C(=O)N[C@@H](C)C(=O)N[C@@H](C)C(N)=O)NC(=O)C(C)(C)NC(=O)[C@H](Cc3ccc4ccccc4c3)NC2=O)cc1 [compound 50] (Ac-[dK]NTWQAY(Me)[2Nal][Aib]DAA-NH2; lactam 1-10) | 8.29 | 
8 | COc1ccc(C[C@@H]2NC(=O)[C@H](CCCNC(=N)N)NC(=O)[C@H](CCC(N)=O)NC(=O)[C@H](Cc3c[nH]c4ccccc34)NC(=O)[C@H]([C@@H](C)O)NC(=O)[C@H](CC(N)=O)NC(=O)[C@H](NC(C)=O)CCCNC(=O)CC[C@@H](C(=O)N[C@@H](CC(N)=O)C(=O)N[C@@H](CC(N)=O)C(N)=O)NC(=O)C(C)(C)NC(=O)[C@H](Cc3cccc4ccccc34)NC2=O)cc1 [compound 22] (Ac-[dOrn]NTWQRY(Me)[1Nal][Aib]ENN-NH2; lactam 1-10) | 48.4 | 
9 | COc1ccc(C[C@@H]2NC(=O)[C@H](CCCNC(=N)N)NC(=O)[C@H](CCC(N)=O)NC(=O)[C@H](Cc3cn(C)c4ccccc34)NC(=O)[C@H]([C@@H](C)O)NC(=O)[C@H](CC(N)=O)NC(=O)[C@@H](NC(C)=O)CC(=O)NCCC[C@@H](C(=O)N[C@@H](CC(N)=O)C(=O)N[C@@H](CC(N)=O)C(N)=O)NC(=O)C(C)(C)NC(=O)[C@H](Cc3c[nH]c4ccccc34)NC2=O)cc1 [compound 36] (Ac-DNT[Trp(1-Me)]QRY(Me)W[Aib][Orn]NN-NH2; lactam 1-10) | 19.5 | 
10 | COc1ccc(C[C@@H]2NC(=O)[C@H](CCCNC(=N)N)NC(=O)[C@H](CCC(N)=O)NC(=O)[C@H](Cc3cn(C)c4ccccc34)NC(=O)[C@H]([C@@H](C)O)NC(=O)[C@H](CC(N)=O)NC(=O)[C@@H](NC(C)=O)CC(=O)NCCC[C@@H](C(=O)N[C@@H](CC(N)=O)C(=O)N[C@@H](CC(N)=O)C(N)=O)NC(=O)[C@H](CC(C)C)NC(=O)[C@H](Cc3ccc4ccccc4c3)NC2=O)cc1 [compound 37] (Ac-DNT[Trp(1-Me)]QRY(Me)[2Nal]L[Orn]NN-NH2; lactam 1-10) | 3.57 | 
11 | COc1ccc(C[C@@H]2NC(=O)[C@H](C)NC(=O)[C@H](CCC(N)=O)NC(=O)[C@H](Cc3c[nH]c4ccccc34)NC(=O)[C@H]([C@@H](C)O)NC(=O)[C@H](CC(N)=O)NC(=O)[C@H](NC(C)=O)CCCCNC(=O)C[C@@H](C(=O)N[C@@H](C)C(=O)N[C@@H](CC(N)=O)C(N)=O)NC(=O)C(C)(C)NC(=O)[C@H](Cc3ccc4ccccc4c3)NC2=O)cc1 [compound 49] (Ac-[dK]NTWQAY(Me)[2Nal][Aib]DAN-NH2; lactam 1-10) | 3.13 | 
12 | COc1ccc(C[C@@H]2NC(=O)[C@H](C)NC(=O)[C@H](CCC(N)=O)NC(=O)[C@H](Cc3c[nH]c4ccccc34)NC(=O)[C@H]([C@@H](C)O)NC(=O)[C@H](CC(N)=O)NC(=O)CCCCNC(=O)C[C@@H](C(=O)N[C@@H](CC(N)=O)C(=O)N[C@@H](CC(N)=O)C(N)=O)NC(=O)C(C)(C)NC(=O)[C@H](Cc3ccc4ccccc4c3)NC2=O)cc1 [compound 44] ([Ava]NTWQAY(Me)[2Nal][Aib]DNN-NH2; lactam N-10) | 4.66 | 
13 | COc1ccc(C[C@@H]2NC(=O)[C@H](C)NC(=O)[C@H](CCC(N)=O)NC(=O)[C@H](Cc3c[nH]c4ccccc34)NC(=O)[C@H]([C@@H](C)O)NC(=O)[C@H](CC(N)=O)NC(=O)CCCCCNC(=O)C[C@@H](C(=O)N[C@@H](CC(N)=O)C(=O)N[C@@H](CC(N)=O)C(N)=O)NC(=O)C(C)(C)NC(=O)[C@H](Cc3ccc4ccccc4c3)NC2=O)cc1 [compound 43] ([Ahx]NTWQAY(Me)[2Nal][Aib]DNN-NH2; lactam N-10) | 1.44 | 
14 | CC(=O)N[C@H]1CC(=O)NCCC[C@@H](C(=O)N[C@@H](CC(N)=O)C(=O)N[C@@H](CC(N)=O)C(N)=O)NC(=O)C(C)(C)NC(=O)[C@H](Cc2ccc3ccccc3c2)NC(=O)[C@H](Cc2ccc(O)cc2)NC(=O)[C@H](CCCNC(=N)N)NC(=O)[C@H](CCC(N)=O)NC(=O)[C@H](Cc2cn(C)c3ccccc23)NC(=O)[C@H]([C@@H](C)O)NC(=O)[C@H](CC(N)=O)NC1=O [compound 33] (Ac-DNT[Trp(1-Me)]QRY[2Nal][Aib][Orn]NN-NH2; lactam 1-10) | 3.36 | 
15 | COc1ccc(C[C@@H]2NC(=O)[C@H](CCCNC(=N)N)NC(=O)[C@H](CCC(N)=O)NC(=O)[C@H](Cc3c[nH]c4ccccc34)NC(=O)[C@H](Cc3c[nH]cn3)NC(=O)[C@H](CC(N)=O)NC(=O)[C@@H](NC(C)=O)CCCCNC(=O)C[C@@H](C(=O)N[C@@H](CC(N)=O)C(=O)N[C@@H](CC(N)=O)C(N)=O)NC(=O)C3(CCOCC3)NC(=O)[C@H](Cc3ccc4ccccc4c3)NC2=O)cc1 [compound 42] (Ac-KNHWQRY(Me)[2Nal][Thp]DNN-NH2; lactam 1-10) | 18.1 | 

Source: patent US20260250322A1, “NEW PEPTIDES AS SELECTIVE IL-23 RECEPTOR INHIBITORS” (SANOFI, priority 2023, published 2026)
